Test results: the NIST ThermoML archive (doi:10.1016/j.jct.2013.03.020)
Where “and” joins values, the source holds several entries; their conditions need not be identical. Identical values can stand only once. Numbers after ± are expanded uncertainties.

Conditions: Liquid, Closed cell (Static) method

Structure (SMILES): CN(C)CCO [2-(N,N-dimethylamino)ethanol]
- vapor or sublimation pressure (273.15 K): 0.142 ± 0.004 kPa
- vapor or sublimation pressure (273.86 K): 0.149 ± 0.0036 kPa
- vapor or sublimation pressure (282.97 K): 0.2938 ± 0.0067 kPa and 0.2945 ± 0.0067 kPa
- vapor or sublimation pressure (283.15 K): 0.2979 ± 0.0068 kPa
- vapor or sublimation pressure (292.89 K): 0.5824 ± 0.013 kPa
- vapor or sublimation pressure (292.91 K): 0.5823 ± 0.013 kPa and 0.5822 ± 0.013 kPa
- vapor or sublimation pressure (293.15 K): 0.59 ± 0.013 kPa
- vapor or sublimation pressure (302.89 K): 1.095 ± 0.024 kPa and 1.096 ± 0.024 kPa
- vapor or sublimation pressure (303.15 K): 1.11 ± 0.024 kPa
- vapor or sublimation pressure (312.86 K): 1.963 ± 0.041 kPa
- vapor or sublimation pressure (313.15 K): 1.993 ± 0.041 kPa
- vapor or sublimation pressure (323.03 K): 3.392 ± 0.07 kPa
- vapor or sublimation pressure (323.15 K): 3.435 ± 0.071 kPa
- vapor or sublimation pressure (333.06 K): 5.626 ± 0.11 kPa
- vapor or sublimation pressure (333.15 K): 5.705 ± 0.12 kPa
- vapor or sublimation pressure (343.05 K): 9.047 ± 0.19 kPa
- vapor or sublimation pressure (343.15 K): 9.165 ± 0.19 kPa
- vapor or sublimation pressure (353.04 K): 14.45 ± 0.3 kPa
- vapor or sublimation pressure (353.15 K): 14.29 ± 0.29 kPa
- vapor or sublimation pressure (363.1 K): 21.59 ± 0.43 kPa
- vapor or sublimation pressure (363.15 K): 21.66 ± 0.44 kPa

Structure (SMILES): CCN1CCOCC1 [4-ethylmorpholine]
- vapor or sublimation pressure (283.15 K): 0.5816 ± 0.013 kPa
- vapor or sublimation pressure (283.98 K): 0.6293 ± 0.014 kPa
- vapor or sublimation pressure (293.15 K): 1.083 ± 0.024 kPa
- vapor or sublimation pressure (293.93 K): 1.142 ± 0.025 kPa
- vapor or sublimation pressure (303.15 K): 1.918 ± 0.04 kPa
- vapor or sublimation pressure (303.86 K): 1.985 ± 0.041 kPa and 1.989 ± 0.041 kPa
- vapor or sublimation pressure (313.15 K): 3.253 ± 0.067 kPa
- vapor or sublimation pressure (323.15 K): 5.304 ± 0.11 kPa
- vapor or sublimation pressure (323.78 K): 5.303 ± 0.11 kPa
- vapor or sublimation pressure (333.15 K): 8.353 ± 0.17 kPa
- vapor or sublimation pressure (333.91 K): 8.702 ± 0.18 kPa
- vapor or sublimation pressure (343.15 K): 12.75 ± 0.26 kPa
- vapor or sublimation pressure (343.88 K): 13.07 ± 0.26 kPa
- vapor or sublimation pressure (353.15 K): 18.92 ± 0.38 kPa
- vapor or sublimation pressure (353.9 K): 18.88 ± 0.38 kPa
- vapor or sublimation pressure (363.15 K): 27.37 ± 0.56 kPa
- vapor or sublimation pressure (363.86 K): 28.78 ± 0.58 kPa

Structure (SMILES): CC(C)N(C)C [N,N-dimethylisopropylamine]
- vapor or sublimation pressure (273.15 K): 6.65 ± 0.14 kPa
- vapor or sublimation pressure (274.58 K): 7.183 ± 0.15 kPa and 7.185 ± 0.15 kPa and 7.197 ± 0.15 kPa
- vapor or sublimation pressure (283.15 K): 11.11 ± 0.22 kPa
- vapor or sublimation pressure (283.86 K): 11.39 ± 0.23 kPa
- vapor or sublimation pressure (293.15 K): 17.77 ± 0.36 kPa
- vapor or sublimation pressure (293.81 K): 18.3 ± 0.37 kPa and 18.39 ± 0.37 kPa
- vapor or sublimation pressure (303.15 K): 27.37 ± 0.55 kPa
- vapor or sublimation pressure (303.82 K): 28.18 ± 0.57 kPa
- vapor or sublimation pressure (313.15 K): 40.76 ± 0.82 kPa
- vapor or sublimation pressure (313.79 K): 41.76 ± 0.84 kPa and 41.79 ± 0.84 kPa and 41.8 ± 0.84 kPa
- vapor or sublimation pressure (323.15 K): 58.9 ± 1.2 kPa
- vapor or sublimation pressure (324.02 K): 60.66 ± 1.2 kPa and 60.72 ± 1.2 kPa
- vapor or sublimation pressure (333.15 K): 82.89 ± 1.7 kPa
- vapor or sublimation pressure (334.05 K): 85.36 ± 1.7 kPa [middle of 4 runs]

Structure (SMILES): O [water]
- vapor or sublimation pressure (273.15 K): 0.5798 ± 0.013 kPa
- vapor or sublimation pressure (283.15 K): 1.183 ± 0.026 kPa
- vapor or sublimation pressure (293.15 K): 2.277 ± 0.047 kPa
- vapor or sublimation pressure (303.15 K): 4.165 ± 0.085 kPa
- vapor or sublimation pressure (313.15 K): 7.284 ± 0.15 kPa
- vapor or sublimation pressure (323.15 K): 12.23 ± 0.25 kPa
- vapor or sublimation pressure (333.15 K): 19.82 ± 0.4 kPa
- vapor or sublimation pressure (343.15 K): 31.09 ± 0.63 kPa and 30.82 ± 0.62 kPa
- vapor or sublimation pressure (353.15 K): 47.34 ± 0.95 kPa
- vapor or sublimation pressure (363.15 K): 70.22 ± 1.4 kPa
